Source: patent US8466186B2, “Compounds” (Boehringer Ingelheim International GmbH, priority 2010, dated 2013)

target: T1, recombinant human mPGES-1 (Homo sapiens, UniProt O14684); assay: Assay A: mPGES-1 enzyme assay (HTRF detection of PGE2); type: biochemical; details: biological assay A; microsomes from E. coli expressing recombinant human mPGES-1; read-out: mPGES-1 inhibitory effect IC50
T1 construct: made in house; host or cells: Rosetta E. coli (membrane/microsome fraction)
T1 sequence (O14684 1-152): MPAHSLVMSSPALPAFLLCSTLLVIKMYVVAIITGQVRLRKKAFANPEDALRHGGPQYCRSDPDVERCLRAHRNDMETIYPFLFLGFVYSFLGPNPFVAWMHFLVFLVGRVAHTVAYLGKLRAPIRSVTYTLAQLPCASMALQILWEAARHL
Description: The aim of this assay is to determine the affinity of a test compound for the mPGES-1 enzyme.
• 1. Riendeau, D., R. Aspiotis, D. Ethier, Y. Gareau, E. Grimm, J. Guay, S. Guiral, H. Juteau, J. Mancini, N. Methot, J. Rubin, and R. Friesen, Inhibitors of the inducible microsomal prostaglandin E2 synthase (mPGES-1) derived from MK-886. Bioorg Med Chem Lett, 2005. 15(14): p. 3352-3355. • 2. Cote, B., L. Boulet, C. Brideau, D. Claveau, D. Ethier, R. Frenette, M. Gagnon, A. Giroux, J. Guay, S. Guiral, J. Mancini, E. Martins, F. Masse, N. Methot, D. Riendeau, J. Rubin, D. Xu, H. Yu, Y. Ducharme, and R. Friesen, Substituted phenanthrene imidazoles as potent, selective, and orally active mPGES-1 inhibitors. Bioorg Med Chem Lett, 2007. 17(24): p. 6816-6820. Assay A: mPGES-1 Enzyme Assay List of Reagents Used: • Glutathione (Sigma, G-4251) • Freeze culture in Rosetta E coli expression strain. • LB growth media with Ampillicillin (Amp) final concentration in culture 50 μg/mL • Chloroamphenicol stock 34 mg/mL (chloro) final concentration in culture 34 μg/mL • Sterile growth flasks for 500 mL-1 liter cultures • 0.1 M KP, buffer pH 7.4 • 9.25% HCl • PGH2 (0.25 mM) • Fe (II) Cl2 tetrahydrate, 99% (Sigma, 220229) • 384-well plate with compounds • 96-well plate, polypropylene (Thermo fast 96 skirted VWR) • 384-well plate polypropylene PCR plate (Greiner 785201) • Greiner 384-well plate pp (In vitro cat. no. 781280) • Adhesive sealing film for 96-well plates (Sigma-Aldrich) • Aluminium foil (PCR foil, 310-0030-127-471 from Labora) • PBS (GIBCO 14040) • Prostaglandin E2 Assay (Cisbio, cat. no. 62P2APEC) • Biomek FX robot (Beckman Coulter) • Biomek NX robot (Beckman Coulter) • Multidrop; micro or combi (ThermoLabsystems) • Plate reader: Safire2 (Tecan)
Microsomes from Rosetta E. coli bacteria expressing recombinant human mPGES-1 can be derived as described below:
Inoculate 5 mL LB with Amp and Chloro with bacteria from freeze culture. Incubate overnight at 37° C. with 200 rpm. Thereafter, inoculate 500-800 mL LB containing Amp and Chloro with the 5 mL on culture and grow to OD640 of 0.6-0.8. Chill the culture to +4° C. before induction. Induce the culture with IPTG at a final concentration of 400 μM. Express the protein at room temp 18-23° C. with 200 rpm shaking overnight.
The following steps can be performed on the following day: • 1. Spin down the cells in 250 mL centrifuge flasks for 15 min at 7000 rpm • 2. Dissolve the pellet from 250 mL culture in 12.5 mL homogenization buffer • 3. Disintegrate the cells by sonication, 4×10 seconds at 35% amplitude • 4. Add 2.5 mL MgCl2 (100 mM) and DNase 12.5 μL (0.8 mg/mL) and incubate on ice for 30 min • 5. Spin down the bacteria debris and save the supernatant, 7000 rpm for 15 min • 6. Isolate the protein containing membranes in the supernatant by ultracentrifugation 45000×g for 1 hour. • 7. Discard the supernatant and dissolve the pellet in 20 mM KPi buffer and aliquot the enzyme and store aliquots at −80° C.
Before each experiment is performed an aliquot of the enzyme is thawed and it can then be dissolved in 0.1 M KP, pH 7.4 buffer containing 2.5 mM GSH. 50 μL of this enzyme solution is subsequently dispensed in a 384-well plate at room temperature. 0.5 μL of the inhibitor dissolved in DMSO is thereafter added to each well and incubated for 25 minutes at room temperature. Subsequently, 2 μL of PGH2 dissolved in an appropriate solvent is added to each well and after one minute at room temperature, the acidified stop solution containing FeCl2 is added. 4 μL of the total volume is transferred to a separate plate and diluted 750-fold in two separate steps before quantification of PGE2.
In order to quantitate the amount of PGE2 that has been formed, a homogenous time resolved fluorescent (HTRF) detection of PGE2 can be performed by the use of a commercially available kit from CisBio essentially according to the manufacturer's protocol. […]

Compound | IC50 [nM]
Cn1c(Nc2cc(CNC(=O)C(C)(N)C(F)(F)F)ccc2C(F)(F)F)nc2cc(Cl)c(N3CCC(C(F)(F)F)CC3)cc21 (stereo not shown) [Example 108] | 5.8
Cn1c(Nc2cc(CN[S+]([O-])C(C)(C)C)ccc2C(F)(F)F)nc2cc(Cl)c(N3CCC(C(F)(F)F)CC3)cc21 (stereo not shown) [Example 109, N-(4-Trifluoromethyl-3-(5-chloro-1-methyl-6-(4-trifluoromethyl-piperidin-1-yl)-1H-benzo[d]imidazol-2-ylamino)benzyl)-2-methylpropane-2-sulfinamide] | 5.2
Cn1c(Nc2cc(CNS(=O)(=O)C(C)(C)C)ccc2C(F)(F)F)nc2cc(Cl)c(N3CCC(C(F)(F)F)CC3)cc21 [Example 110, N-(4-Trifluoromethyl-3-(5-chloro-1-methyl-6-(4-trifluoromethyl-piperidin-1-yl)-1H-benzo[d]imidazol-2-ylamino)benzyl)-2-methylpropane-2-sulfonamide] | 1.5
Cn1c(Nc2cc(CNC(=O)C3(C(F)(F)F)CC3)ccc2F)nc2cc(Cl)c(N3CCC(C(F)(F)F)CC3)cc21 [Example 111, N-{4-Fluoro-3-[5-chloro-1-methyl-6-(4-trifluoromethyl-piperidin-1-yl)-1H-benzimidazol-2-ylamino]-benzyl}-1-trifluoromethyl-cyclopropanamide] | 19
Cn1c(Nc2cc(CNC(=O)C3(C(F)(F)F)CC3)ccc2F)nc2cc(Cl)c(N3CCC(F)(F)CC3)cc21 [Example 112] | 22
Cn1c(Nc2cc(CNC(=O)C3(C(F)(F)F)CC3)ccc2F)nc2cc(C#N)c(N3CCC(C(F)(F)F)CC3)cc21 [Example 113] | 11
Cn1c(Nc2cc(CNC(=O)C3(C(F)(F)F)CC3)c(F)cc2Cl)nc2cc(Cl)c(N3CCC(C(F)(F)F)CC3)cc21 [Example 114, N-{4-Chloro-2-fluoro-5-[5-chloro-1-methyl-6-(4-trifluoromethyl-piperidin-1-yl)-1H-benzimidazol-2-ylamino]-benzyl}-1-trifluoromethyl-cyclopropanamide] | 4.8
Cn1c(Nc2cc(CNC(=O)C3(C(F)(F)F)CC3)c(F)cc2Cl)nc2cc(Cl)c(N3CCC(C)(C)CC3)cc21 [Example 115] | 9.2
Cn1c(Nc2cc(CNC(=O)C3(C(F)(F)F)CC3)cc(F)c2Cl)nc2cc(Cl)c(N3CCC(C(F)(F)F)CC3)cc21 [Example 116, N-{4-Chloro-5-fluoro-3-[5-chloro-1-methyl-6-(4-trifluoromethyl-piperidin-1-yl)-1H-benzimidazol-2-ylamino]-benzyl}-1-trifluoromethyl-cyclopropanamide] | 5.9
CC(C)(C)C(=O)NCc1ccc(OC(F)(F)F)c(Nc2nc3cc(C#N)c(N4CCCC(C(F)(F)F)C4)cc3[nH]2)c1 (stereo not shown) [Example 117, N-{3-(5-Cyano-6-[3-trifluoromethyl-piperidin-1-yl)-1H-benzo[d]imidazol-2-ylamino]-4-trifluoromethoxy-benzyl}-2,2-dimethyl-propionamide] | 120
CC1(C(=O)NCc2ccc(Cl)c(Nc3nc4ccc(N5CCCC5)cc4[nH]3)c2)CCCCC1 [Example 118] | 53
CC1(C(=O)NCc2ccc(Cl)c(Nc3nc4ccc(N5CCOCC5)cc4[nH]3)c2)CCCCC1 [Example 119] | > 100
CN1CCN(c2cc3[nH]c(Nc4cc(CNC(=O)C5(C)CCCCC5)ccc4Cl)nc3cc2Cl)CC1 [Example 120] | 266
CC1(C(=O)NCc2ccc(Cl)c(Nc3nc4cc(Cl)c(N5CCOCC5)cc4[nH]3)c2)CCCCC1 [Example 121] | 60
COC[C@@H]1CCCN1c1cc2[nH]c(Nc3cc(CNC(=O)C4(C)CCCCC4)ccc3Cl)nc2cc1Cl [Example 122] | 7.9
Cn1c(Nc2cc(CNC(=O)C3(C)CCCCC3)ccc2Cl)nc2ccc(N3CCCC3)cc21 [Example 123] | 29
Cn1c(Nc2cc(CNC(=O)C3(C(F)(F)F)CC3)ccc2Cl)nc2cc(Cl)c(N3CCCC(C(F)(F)F)C3)cc21 (stereo not shown) [Example 124] | 2.6
CC(C)N1CCN(c2cc3c(cc2Cl)nc(Nc2cc(CNC(=O)C4(C(F)(F)F)CC4)ccc2Cl)n3C)CC1 [Example 125] | 32
COC[C@@H]1CCCN1c1cc2c(cc1Cl)nc(Nc1cc(CNC(=O)C3(C(F)(F)F)CC3)ccc1Cl)n2C [Example 126] | 6.7
N#Cc1cc2nc(Nc3cc(CNC(=O)C4(C(F)(F)F)CC4)ccc3Cl)[nH]c2cc1N1CCCC1 [Example 127] | 26
O=C(NCc1ccc(Cl)c(Nc2nc3cc(Cl)c(N4CCOCC4)cc3[nH]2)c1)C1(C(F)(F)F)CC1 [Example 128] | 172
CN1CCN(c2cc3[nH]c(Nc4cc(CNC(=O)C5(C(F)(F)F)CC5)ccc4Cl)nc3cc2Cl)CC1 [Example 129] | 634
N#Cc1cc2nc(Nc3cc(CNC(=O)C4(C(F)(F)F)CC4)ccc3Cl)[nH]c2cc1N1CCCC(C(F)(F)F)C1 (stereo not shown) [Example 130] | 15
Cn1c(Nc2cc(CNC(=O)C3(C(F)(F)F)CC3)ccc2Cl)nc2ccc(N3CCCC3)cc21 [Example 132] | 124
COC[C@@H]1CCCN1c1cc2[nH]c(Nc3cc(CNC(=O)C4(C(F)(F)F)CC4)ccc3Cl)nc2cc1Cl [Example 133, (S)—N-{4-Chloro-3-[5-chloro-6-(2-methoxymethyl-pyrrolidin-1-yl)-1H-benzo[d]imidazol-2-ylamino]benzyl}-1-trifluoromethyl-cyclopropanecarboxamide] | 25
